From US11591355B2 (Peloton Therapeutics, Inc., priority 2017, dated 2023)
Where two headings read alike, the source gives them in different places.

Key:
Human CD73 = biological target: T1, Human CD73 (Homo sapiens, UniProt P21589); test: CD73 Enzyme Assay; assay type: biochemical; settings: read-out: CD73 Enzyme Assay IC50
T1 construct: purchased R&D Systems; host or cells: CHO cells
T1 sequence (P21589 27-549): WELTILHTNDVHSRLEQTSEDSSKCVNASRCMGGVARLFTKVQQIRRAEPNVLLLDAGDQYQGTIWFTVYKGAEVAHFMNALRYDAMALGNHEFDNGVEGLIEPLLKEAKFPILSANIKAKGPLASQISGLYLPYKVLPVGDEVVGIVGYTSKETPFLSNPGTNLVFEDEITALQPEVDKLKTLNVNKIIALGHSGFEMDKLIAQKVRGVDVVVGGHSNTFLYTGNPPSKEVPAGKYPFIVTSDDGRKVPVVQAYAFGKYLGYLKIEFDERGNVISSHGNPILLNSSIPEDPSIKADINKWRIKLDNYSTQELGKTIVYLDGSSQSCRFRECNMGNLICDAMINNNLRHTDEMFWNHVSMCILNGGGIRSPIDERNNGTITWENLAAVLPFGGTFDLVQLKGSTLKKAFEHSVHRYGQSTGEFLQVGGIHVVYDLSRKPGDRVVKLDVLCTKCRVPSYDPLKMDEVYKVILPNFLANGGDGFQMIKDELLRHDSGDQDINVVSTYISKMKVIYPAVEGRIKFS

[1] = biological target: T2, CD73 on U138 human neuroglioma cells (Homo sapiens, UniProt P21589); test: CD73 Cell-Based Assay
T2 construct: U138 cells were obtained from ATCC and cultured in DMEM with 10% FBS; host or cells: U138 human neuroglioma cells
T2 sequence (P21589 27-549): T1 sequence (P21589 27-549)
Outline: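 Whole U138 cells washed free of phosphate were incubated with 200 μM AMP (mixture concentration before equal-volume addition) plus compound in HEPES-buffered saline, pH 7.4, for 2 h at 37 °C, 5% CO2. Adenosine-forming activity read as inorganic phosphate released into supernatant by malachite green.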

[2] = 0.25 nM hCD73, 25 μM AMP, kinetic read at 360 nm
[3] = U138 cells, AMP substrate, 2 hours at 37° C., inorganic phosphate by malachite green

| Structure (SMILES) | IC50 (Human CD73; [2]) [nM] | IC50 [1, 3] [nM] | IC50 (Human CD73) [nM] | IC50 [1] [nM] |
| --- | --- | --- | --- | --- |
| C[C@@H](Nc1nc(Cl)nc2c1ccn2[C@@H]1O[C@H](CS(=O)(=O)CP(=O)(O)O)[C@@H](O)[C@H]1O)c1ccc(F)cc1 [Compound 167, [(2S,3S,4R,5R)-5-[2-chloro-4-[[(1R)-1-(4-fluorophenyl)ethyl]-amino]pyrrolo[2,3-d]-pyrimidin-7-yl]-3,4-dihydroxy-tetrahydro-furan-2-yl]methyl-sulfonylmethylphos-phonic acid] | < 10 | < 10 |  |  |
| C[C@@H](Nc1nc(Cl)nc2c1ccn2[C@@H]1O[C@H](CS(=O)(=O)CP(=O)(O)O)[C@@H](O)[C@H]1O)c1ccccc1F [Compound 168, [(2S,3S,4R,5R)-5-[2-chloro-4-[[(1R)-1-(2-fluorophenyl)ethyl]-amino]pyrrolo[2,3-d]-pyrimidin-7-yl]-3,4-dihydroxy-tetrahydro-furan-2-yl]methyl-sulfonylmethylphos-phonic acid] | < 10 | < 10 |  |  |
| Cc1ccc([C@@H](C)Nc2nc(Cl)nc3c2ccn3[C@@H]2O[C@H](CS(=O)(=O)CP(=O)(O)O)[C@@H](O)[C@H]2O)cc1 [Compound 169, [(2S,3S,4R,5R)-5-[2-chloro-4-[[(1R)-1-(p-tolyl)ethyl]amino]-pyrrolo[2,3-d]-pyrimidin-7-yl]-3,4-dihydroxy-tetrahydro-furan-2-yl]methyl-sulfonylmethylphos-phonic acid] | < 10 | < 10 |  |  |
| Cc1ccc([C@H](C)Nc2nc(Cl)nc3c2ccn3[C@@H]2O[C@H](CS(=O)(=O)CP(=O)(O)O)[C@@H](O)[C@H]2O)cc1 [Compound 170, [(2S,3S,4R,5R)-5-[2-chloro-4-[[(1S)-1-(p-tolyl)ethyl]amino]-pyrrolo[2,3-d]-pyrimidin-7-yl]-3,4-dihydroxy-tetrahydro-furan-2-yl]methyl-sulfonylmethylphos-phonic acid] | < 10 | < 10 |  |  |
| O=P(O)(O)CS(=O)(=O)C[C@H]1O[C@@H](n2ccc3c(NC4CCC(F)(F)C4)nc(Cl)nc32)[C@H](O)[C@@H]1O (stereo partly drawn) [Compound 171, [(2S,3S,4R,5R)-5-[2-chloro-4-[(3,3-difluoro-cyclopentyl)amino]-pyrrolo[2,3-d]-pyrimidin-7-yl]-3,4-dihydroxy-tetrahydro-furan-2-yl]methyl-sulfonylmethylphos-phonic acid] | < 10 | < 10 |  |  |
| O=P(O)(O)CS(=O)(=O)C[C@H]1O[C@@H](n2ccc3c(NC4CCC4)nc(Cl)nc32)[C@H](O)[C@@H]1O [Compound 172, [(2S,3S,4R,5R)-5-[2-chloro-4-(cyclobutyl-amino)pyrrolo[2,3-d]-pyrimidin-7-yl]-3,4-dihydroxy-tetrahydro-furan-2-yl]methyl-sulfonylmethylphos-phonic acid] | < 10 | < 10 |  |  |
| O=P(O)(O)CS(=O)(=O)C[C@H]1O[C@@H](n2ccc3c(NC4CC(F)(F)C4)nc(Cl)nc32)[C@H](O)[C@@H]1O [Compound 173, [(2S,3S,4R,5R)-5-[2-chloro-4-[(3,3-difluoro-cyclobutyl)amino]-pyrrolo[2,3-d]-pyrimidin-7-yl]-3,4-dihydroxy-tetrahydro-furan-2-yl]methyl-sulfonylmethylphos-phonic acid] | < 10 | < 10 |  |  |
| O=P(O)(O)CS(=O)(=O)C[C@H]1O[C@@H](n2ccc3c(NC4CCCCC4)nc(Cl)nc32)[C@H](O)[C@@H]1O [Compound 174, [(2S,3S,4R,5R)-5-[2-chloro-4-(cyclohexyl-amino)pyrrolo[2,3-d]-pyrimidin-7-yl]-3,4-dihydroxy-tetrahydro-furan-2-yl]methyl-sulfonylmethylphos-phonic acid] | < 10 | < 10 |  |  |
| O=P(O)(O)CS(=O)(=O)C[C@H]1O[C@@H](n2ccc3c(N4CC5CC5C4)nc(Cl)nc32)[C@H](O)[C@@H]1O (stereo partly drawn) [Compound 175, [(2S,3S,4R,5R)-5-[4-(3-azabicyclo[3.1.0]-hexan-3-yl)-2-chloro-pyrrolo[2,3-d]-pyrimidin-7-yl]-3,4-dihydroxy-tetrahydro-furan-2-yl]methyl-sulfonylmethylphos-phonic acid] | 10 to 100 | 10 to 100 |  |  |
| CCNc1nc(Cl)nc2c1ccn2[C@@H]1O[C@H](CS(=O)(=O)CP(=O)(O)O)[C@@H](O)[C@H]1O [Compound 176, [(2S,3S,4R,5R)-5-[2-chloro-4-(ethylamino)-pyrrolo[2,3-d]-pyrimidin-7-yl]-3,4-dihydroxy-tetrahydro-furan-2-yl]methyl-sulfonylmethylphos-phonic acid] | 10 to 100 | 10 to 100 |  |  |
| CC(C)N(C)c1nc(Cl)nc2c1ccn2[C@@H]1O[C@H](CS(=O)(=O)CP(=O)(O)O)[C@@H](O)[C@H]1O [Compound 177, [(2S,3S,4R,5R)-5-[2-chloro-4-[isopropyl-(methyl)amino]-pyrrolo[2,3-d]-pyrimidin-7-yl]-3,4-dihydroxy-tetrahydro-furan-2-yl]methyl-sulfonylmethylphos-phonic acid] | < 10 | < 10 |  |  |
| C[C@@H](Nc1nc(Cl)nc2c1ccn2[C@@H]1O[C@H](CS(=O)(=O)CP(=O)(O)O)[C@@H](O)[C@H]1O)c1ccc(F)cc1F [Compound 178, (((((2S,3S,4R,5R)-5-(2-chloro-4-(((R)-1-(2,4-difluorophenyl)ethyl)amino)-7H-pyrrolo[2,3-d]pyrimidin-7-yl)-3,4-dihydroxytetrahydrofuran-2-yl)methyl)sulfonyl)methyl)phosphonic acid] | < 10 | < 10 |  |  |
| C[C@@H](Nc1nc(Cl)nc2c1ccn2[C@@H]1O[C@H](CS(=O)(=O)CP(=O)(O)O)[C@@H](O)[C@H]1O)c1ccc(Cl)cc1 [Compound 179, [(2S,3S,4R,5R)-5-[2-chloro-4-[[(1R)-1-(4-chlorophenyl)ethyl]-amino]pyrrolo[2,3-d]-pyrimidin-7-yl]-3,4-dihydroxy-tetrahydro-furan-2-yl]methyl-sulfonylmethylphos-phonic acid] | < 10 | < 10 |  |  |
| C[C@@H](Nc1nc(Cl)nc2c1ccn2[C@@H]1O[C@H](CS(=O)(=O)CP(=O)(O)O)[C@@H](O)[C@H]1O)c1cccc(C#N)c1 [Compound 180, [(2S,3S,4R,5R)-5-[2-chloro-4-[[(1R)-1-(3-cyanophenyl)ethyl]-amino]pyrrolo[2,3-d]-pyrimidin-7-yl]-3,4-dihydroxy-tetrahydro-furan-2-yl]methyl-sulfonylmethylphos-phonic acid] | < 10 | < 10 |  |  |
| C[C@H](Nc1nc(Cl)nc2c1ccn2[C@@H]1O[C@H](CS(=O)(=O)CP(=O)(O)O)[C@@H](O)[C@H]1O)c1ccc(C#N)cc1 [Compound 181, [(2S,3S,4R,5R)-5-[2-chloro-4-[[(1S)-1-(4-cyanophenyl)ethyl]-amino]pyrrolo[2,3-d]-pyrimidin-7-yl]-3,4-dihydroxy-tetrahydro-furan-2-yl]methyl-sulfonylmethylphos-phonic acid] | < 10 | < 10 |  |  |
| O=P(O)(O)CS(=O)(=O)C[C@H]1O[C@@H](n2ccc3c(NC4CCC(F)(F)CC4)nc(Cl)nc32)[C@H](O)[C@@H]1O [Compound 182, [(2S,3S,4R,5R)-5-[2-chloro-4-[(4,4-difluoro-cyclohexyl)amino]-pyrrolo[2,3-d]-pyrimidin-7-yl]-3,4-dihydroxy-tetrahydro-furan-2-yl]methyl-sulfonylmethylphos-phonic acid] | < 10 | < 10 |  |  |
| C[C@H](Nc1nc(Cl)nc2c1ccn2[C@@H]1O[C@H](CS(=O)(=O)CP(=O)(O)O)[C@@H](O)[C@H]1O)c1ccc(F)cc1F [Compound 183, [(2S,3S,4R,5R)-5-[2-chloro-4-[[(1S)-1-(2,4-difluorophenyl)ethyl]-amino]pyrrolo[2,3-d]-pyrimidin-7-yl]-3,4-dihydroxy-tetrahydro-furan-2-yl]methyl-sulfonylmethylphos-phonic acid] | < 10 | < 10 |  |  |
| CCOP(=O)(O)COC[C@H]1O[C@@H](n2ccc3c(NC4CCCC4)nc(Cl)nc32)[C@H](O)[C@@H]1O [Compound 184, [(2R,3S,4R,5R)-5-[2-chloro-4-(cyclopentyl-amino)pyrrolo[2,3-d]-pyrimidin-7-yl]-3,4-dihydroxy-tetrahydro-furan-2-yl]methoxy-methylethoxy-phos-phinic acid] |  |  | > 1000 | 100 to 1000 |
| CN(c1nc(Cl)nc2c1ncn2[C@@H]1O[C@H](COCP(=O)(O)O)[C@@H](O)[C@H]1O)C1CCCC1 [Compound 186, [(2R,3S,4R,5R)-5-[2-chloro-6-[cyclopentyl-(methyl)amino]purin-9-yl]-3,4-dihydroxy-tetrahydrofuran-2-yl]-methoxymethylphos-phonic acid] | < 10 | 10 to 100 |  |  |
